The values below come from PMC10038264, “A new family of glutamate-gated chloride channels in parasitic sea louse Caligus rogercresseyi: A subunit refractory to activation by ivermectin is dominant in heteromeric assemblies” (PLOS Pathogens, 2023).

Usually IC50 stands for the concentration that inhibits the measured activity by half.

Where two headings read alike, the source gives them in different places.

In test [1] the test system is CrGluCl-E. The test is described as follows: Two-electrode voltage-clamp of Xenopus oocytes expressing CrGluCl-E. The class given is cell-based, Caligus rogercresseyi. The note with it: CrGluCl-E alone; glutamate up to 1mM, 1μM ivermectin. The method, then:
(§1) Adult female Xenopus laevis frogs were anaesthetized by immersion in a1g/L solution tricaine (Ethyl 3-aminobenzoate methanesulfonate, Sigma) buffered to pH 7 with NaHCO3. Surgery was performed 30–40 min later, once the frog was completely anaesthetized judging by loss of reflexes. Ovarian lobes were removed through 1 cm abdominal incision and then kept at 16°C in Barth’s modified solution containing (in mM): 88 NaCl, 1 KCl, 0.4 CaCl2, 0.3 Ca (NO3)2, 0.8 MgSO4, 2.4 NaHCO3, 5 Hepes, 2.5 sodium pyruvate, 100 μg/ml gentamicin sulfate, 100 U/ml penicillin, 100 μg/ml streptomycin, 250 μg/ml amphotericin B, 0.22μm filtered and adjusted to pH 7.5 with Tris-Base. Osmolarity was brought to 220 mOsm with saccharose. […]
(§2) Current measurements at controlled membrane potentials (voltage-clamp experiments) were performed using two intracellular microelectrodes in defolliculated Xenopus oocytes previously microinjected with 20 ng of cRNA. […] The oocytes were recorded in a chamber (Model RC-1Z, Warner Instrumenst, USA) under continuous superfusion. […] Currents were recorded continuously during the experiments without interruptions for solution changes. […] The signal filtered at 1 kHz was acquired with a Digidata 1440A Analog-to-Digital Converter and analyzed with Axon pClamp 10.6 software. […]
(In general: In two-electrode clamp one electrode senses voltage and the other passes current.)

Test [2] addresses coexpressed CrGluCl-E:CrGluCl-A (Caligus rogercresseyi, UniProt A0A1W6LZ70). Kind of test: Voltage-clamp of oocytes coinjected with CrGluCl-E and CrGluCl-A. The class given is cell-based. Particulars: E:A ratio 1:1. The method, then: as §1, §2
Test [3] deals with coexpressed CrGluCl-E:CrGluCl-C. The test is described as follows: Voltage-clamp of oocytes coexpressing CrGluCl-E and CrGluCl-C. The class given is cell-based, Caligus rogercresseyi. The note with it: C:E ratio 1:1. The method, then: Adult female Xenopus laevis frogs were anaesthetized by immersion in a1g/L solution tricaine (Ethyl 3-aminobenzoate methanesulfonate, Sigma) buffered to pH 7 with NaHCO3. Surgery was performed 30–40 min later, once the frog was completely anaesthetized judging by loss of reflexes. Ovarian lobes were removed through 1 cm abdominal incision and then kept at 16°C in Barth’s modified solution containing (in mM): 88 NaCl, 1 KCl, 0.4 CaCl2, 0.3 Ca (NO3)2, 0.8 MgSO4, 2.4 NaHCO3, 5 Hepes, 2.5 sodium pyruvate, 100 μg/ml gentamicin sulfate, 100 U/ml penicillin, 100 μg/ml streptomycin, 250 μg/ml amphotericin B, 0.22μm filtered and adjusted to pH 7.5 with Tris-Base. Osmolarity was brought to 220 mOsm with saccharose. The oocytes were manually defolliculated on the same day of extraction and the following day 20 ng cRNA in nuclease-free water was injected into stage V-VI oocytes using a FemtoJet microinjector (Eppendorf). Finally, the injected oocytes were stored in 96 well plates containing Barth’s modified solution and kept at 16°C until experiment day.
Current measurements at controlled membrane potentials (voltage-clamp experiments) were performed using two intracellular microelectrodes in defolliculated Xenopus oocytes previously microinjected with 20 ng of cRNA. Voltage-clamp recording was performed at room temperature using a TURBO TEC-10CX amplifier (npi electronic GmbH, Tamm, Germany) and PClamp 10.6 software (Axon Instruments, USA), 1 to 4 days after oocyte injection. The oocytes were recorded in a chamber (Model RC-1Z, Warner Instrumenst, USA) under continuous superfusion. […] Reference was an Ag-AgCl electrode connected to the bath via a 3 M KCl in 3% agar bridge. Currents were recorded continuously during the experiments without interruptions for solution changes. […] The signal filtered at 1 kHz was acquired with a Digidata 1440A Analog-to-Digital Converter and analyzed with Axon pClamp 10.6 software. […]

The subject of test [4] is CrGluCl-B-Q279E-Y361F-Q327T triple mutant. Kind of test: Voltage-clamp of oocytes expressing CrGluCl-B triple mutant. The format is cell-based, Caligus rogercresseyi.
Excerpt: To identify putative GluCl subunits, we queried the NCBI Transcriptome Shotgun Assembly Sequence (TSA) Database for “glutamate-gated chloride channel Caligus”. The obtained sequences were translated and BLASTed (tBLASTn) against the C. rogercresseyi genome (WGS, BioProject ID 280098, NCBI) and against transcripts of L. salmonis database (https://licebase.org/). Primers for each of the putative new subunit found were designed to span the full length of the open reading frame (ORF) for each of them (B-E) (S1 Table, and arrows in Fig 1). Complete cDNAs were generated by RT-PCR from adult C. rogercresseyi samples from which putative full-length peptide sequences of CrGluCl-B, CrGluCl-C, CrGluCl-D and CrGluCl-E were obtained. Each PCR product was cloned in pGEM-T easy vector and sequenced. To express the clones in Xenopus laevis oocytes, ORF of CrGluCl-B, -C, -D and -E were cloned in pGH19 vector from pGEM-Teasy/CrGluCl using the following restriction enzymes: BamHI and XbaI (-B) and EcoRI (-D and -E). CrGluCl-C was cloned first in pCR3.1 vector with NotI and then into pGH19 with SpeI/XbaI. The CrGluCl/pGH19 plasmid were linearized with NheI (-A and -B) or XhoI (-C, -D, -E) and used as template for the synthesis of capped cRNA (complementary RNA) using the mMessage Machine T7 kit. Mutations were made by site-directed mutagenesis using the QuickChange method and confirmed by sequencing. […]
as §2

For test [5], the target named is CrGluCl-A (Caligus rogercresseyi, UniProt A0A1W6LZ70). Particulars: cited from earlier work.
Test [6] concerns CeGluClβ (CeGLC-2). Particulars: cited from earlier work.

Sequence of CrGluCl-A (A0A1W6LZ70 entry or part of it): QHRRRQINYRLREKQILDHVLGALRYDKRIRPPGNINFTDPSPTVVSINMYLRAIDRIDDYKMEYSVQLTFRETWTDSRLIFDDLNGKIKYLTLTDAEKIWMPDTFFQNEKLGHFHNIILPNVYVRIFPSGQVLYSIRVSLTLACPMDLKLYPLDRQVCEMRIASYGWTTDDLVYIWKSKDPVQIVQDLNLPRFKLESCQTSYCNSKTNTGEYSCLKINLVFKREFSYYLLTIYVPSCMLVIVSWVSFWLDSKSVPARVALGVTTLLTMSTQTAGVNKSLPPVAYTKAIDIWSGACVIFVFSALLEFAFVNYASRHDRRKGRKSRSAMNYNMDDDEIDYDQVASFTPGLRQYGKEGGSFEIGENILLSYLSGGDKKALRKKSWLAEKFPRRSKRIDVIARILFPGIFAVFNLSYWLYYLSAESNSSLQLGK
Sequence of coexpressed CrGluCl-E:CrGluCl-A (A0A1W6LZ70 entry or part of it): as above

On to `N[C@@H](CCC(=O)O)C(=O)O` [glutamate, L-glutamate], for which the “response (current activation)” value in test [1] is on record as “failed to show any response”. In addition, the “nH (glutamate)” value in test [2] came to 2.5 ± 0.3. In addition, the EC50 is 36.5 ± 22.5 µM in test [3]; 103 ± 133 µM in test [4] (read-out: EC50 glutamate); 6900 nM in test [5] (read-out: EC50 Glutamate, previously published); 380 µM in test [6] (read-out: EC50 glutamate, CeGluClβ). Further, the “nH (glutamate), previously published” value in test [5] was 1.33.

Consider ivermectin, for which, in test [1], the “response (current activation)” value is reported as “failed to show any response”. Also, the “Iver response to activation” value in test [2] is “Sensitive”. Besides, the “nH (ivermectin)” value in test [3] is listed as 2.1 ± 0.67; in test [3] (listed as Iver), 2.1 ± 0.7; in test [4] it was 1.6 ± 0.22; in test [5], 2.1. Also, the EC50 is 0.094 ± 0.054 µM in test [4] (read-out: EC50 ivermectin); 181 nM in test [5] (listed as Ivermectin, read-out: EC50 Ivermectin / avermectin irreversible activation); around 200 nM in test [5] (read-out: EC50 Ivermectin / avermectin irreversible activation). Further, the “nH (ivermectin inhibition)” value in test [6] (CeGLC-2) is -1.74. Moreover, the IC50 in test [6] (read-out: IC50 ivermectin inhibition of glutamate activated current, CeGLC-2) was 1280 nM.
